These results are taken from publication PMC12069643, “Structural insights into the selective recognition of RF-amide peptides by neuropeptide FF receptor 2” (EMBO Reports, 2025).

Where two headings read alike, the source gives them in different places. Ends that are not written are not given here.

As usually defined, the Emax is the maximal effect, on the per cent scale that the assay sets.

One test concerns the target T1, human NPFFR2 (Homo sapiens, UniProt Q9Y5X5).
T1 construct: expressed in transfected cells; host or cells: HEK293T (pcDNA3.1 NPFFR2)
The test can be described thus: GloSensor forskolin-stimulated cAMP assay, NPFFR2 wild-type. In kind it is cell-based. As to conditions: NPFFR2 wild-type (100% DNA treated for hNPSF), HEK293T, 0.5 μM forskolin; for EC50: three independent experiments; for Emax: HEK-293T, mean of three independent experiments ± SEM. On the procedure:
Figure 1 Structural analysis and downstream signaling of NPFFR2. (A) The concentration-dependent response of various agonists on NPFFR2 is measured using a forskolin-stimulated cAMP assay. Data points represent mean values from three independent experiments (each with technical triplicate), with error bars indicating SEM (standard error of the mean). Raw data were normalized to the vehicle-treated (0%) and 0.5 μM forskolin-treated (100%) responses. […] (C) The extracellular loop 2 (ECL2, pink) and N-terminus (Nt, blue) of NPFFR2 are depicted using a cartoon model. […] Source data are available online for this figure.
(§1) HEK293T cells were seeded at a density of 6 × 10^5 cells per well in a six-well cell culture plate (SPL) and co-transfected with expression plasmids encoding GloSensor™ and each NPFFR construct, using 1 µg to 4 µg of DNA per well according to the Lipofectamine™ 2000 Transfection Reagent (Invitrogen) protocol. After 48 h of incubation under standard conditions (37 °C, 5% CO2), the cells were detached using Accutase solution (Sigma-Aldrich) and washed with PBS. The cells were then pelleted by centrifugation, resuspended in CO2-independent medium (Gibco) supplemented with Firefly D-Luciferin (0.5 mg/ml, NanoLight), and distributed into a 96-well white plate (SPL). After a 2-hour incubation, serially diluted ligands and 0.5 μM forskolin were added to each well to detect ligand-induced signaling. Luminescence signals were measured using a Mithras LB940 instrument (Berthold) with a measurement time of 1 s per well.
(§2) Data from the GloSensor^TM cAMP signaling assays were analyzed using GraphPad Prism with a three-parameter logistic model to fit concentration-response curves for both wild-type (WT) and mutant receptors. Mutant expression levels and DNA amounts were adjusted to match WT conditions. ΔpEC50 values were calculated by subtracting the log EC50 of the WT receptor from that of each mutant. Results are presented as mean ± SEM from three independent biological replicates, each performed in duplicate or more. Error bars represent the SEM. Statistical significance was assessed using one-way ANOVA, followed by Dunnett’s tests comparisons to the WT receptor. Significance levels were reported as follows: ns (not significant, P > 0.05); *P < 0.05; **P < 0.01; ***P < 0.001.
In general terms: Changes in cAMP serve as a functional read-out for many G protein-coupled receptors.

Test [1] deals with T2, NPFFR1-chimera (Q37^NtL/I293^6.58S/T307^7.31N) (Homo sapiens, UniProt Q9GZQ6, I293S/Q37L/T307N).
T2 construct: expressed in transfected cells; host or cells: HEK293T
The test can be described thus: GloSensor forskolin-stimulated cAMP assay, NPFFR1 triple mutant (chimera Q37NtL/I2936.58S/T3077.31N). The following applies: HEK293T, 0.5 μM forskolin, three independent experiments. The test is classed as cell-based. The method, then: (§3) Figure 4 RF-amide ligand selectivity of NPFFR2 and NPFFR1. (A) Sequence alignment between human NPFFs and RFRPs, the endogenous ligands of NPFFRs, which share PXRF-NH2 motif at their C-terminus (shown in green letters). Key residues at the fifth and sixth positions from the C-terminus, are highlighted in bold. […] (B) The concentration-dependent response of various agonists on NPFFR1 was measured using a forskolin-stimulated cAMP assay. Data points represent the mean values from three independent experiments (each with technical triplicate), with error bars indicating SEM. Raw data were normalized to the vehicle-treated (0%) and 0.5 μM forskolin-treated (100%) responses. (C) Structural comparison between the binding modes of hNPSF to NPFFR2 and GnIH to NPFFR1. An AlphaFold2 prediction model of the GnIH–NPFFR1 complex was generated using the hNPSF–NPFFR2 complex structure as a template. The hydrophobicity of NPFFRs is shown with surface representation, where purple indicates hydrophilic regions and bronze indicates hydrophobic regions. […] (D) The cAMP response to the ligands hNPSF and GnIH was measured for both wild-type NPFFR1 and a mutant form of NPFFR1 using a forskolin-stimulated cAMP assay. […] Symbols represent mean values from three independent experiments, each conducted in technical triplicates, with error bars indicating SEM. Responses were normalized to vehicle-treated controls (0%) and 0.5 μM forskolin-treated controls (100%). Source data are available online for this figure.
To further validate whether these specific residues in NPFFR1 affect ligand selectivity, we generated a triple mutant of NPFFR1, in which residues Q37^Nt, I293^6.58, and T307^7.31 of NPFFR1 were replaced by the corresponding NPFFR2 residues, Leu, Ser, and Asn, respectively (Appendix Fig. S10). […]
HEK293T cells were seeded at a density of 6 × 10^5 cells per well in a six-well cell culture plate (SPL) and co-transfected with expression plasmids encoding GloSensor™ and each NPFFR construct, using 1 µg to 4 µg of DNA per well according to the Lipofectamine™ 2000 Transfection Reagent (Invitrogen) protocol. […] Luminescence signals were measured using a Mithras LB940 instrument (Berthold) with a measurement time of 1 s per well.
Data from the GloSensor^TM cAMP signaling assays were analyzed using GraphPad Prism with a three-parameter logistic model to fit concentration-response curves for both wild-type (WT) and mutant receptors. Mutant expression levels and DNA amounts were adjusted to match WT conditions. ΔpEC50 values were calculated by subtracting the log EC50 of the WT receptor from that of each mutant. […] Statistical significance was assessed using one-way ANOVA, followed by Dunnett’s tests comparisons to the WT receptor. […]

Another test deals with T3, human NPFFR1 (Homo sapiens, UniProt Q9GZQ6).
T3 construct: expressed in transfected cells; host or cells: HEK293T (pcDNA3.1 NPFFR1)
The test can be described thus: GloSensor forskolin-stimulated cAMP assay, NPFFR1 wild-type. The following applies: for Emax: HEK-293T, read-out: Emax ± SEM. The test is classed as cell-based. On the procedure:
as §3, with “(A) Sequence alignment between human NPFFs and RFRPs, the endogenous ligands of NPFFRs, which share PXRF-NH2 motif at their C-terminus (shown in green letters).” left out
as §1, §2

Test [2] has as its target NPFFR1 mutant (Q37^NtL, I293^6.58S, and T307^7.31N) (UniProt Q9GZQ6).
Test [3] deals with T4, human Neuropeptide FF Receptor 2 (8-420) (human, UniProt Q9Y5X5-2 8-420).
T4 construct: human NPFFR2, residues 8-420; GFP tag cut off with HRV3C protease while the complex was assembled; the 8xHis tag follows GFP; In the final model the N-terminal 24 residues and the residues beyond 348 are missing; also called NPFFR2; NPFF receptor 2; source: Sf9, purified (Ni-NTA; in LMNG/CHS); not shown: FLAG, N-terminal, kept; GFP, C-terminal, cleaved; His8, C-terminal, cleaved
The test is described as follows: cryo-EM structure; purified NPFFR2, Gi heterotrimer and scFv16 mixed 1:1.5:2 with 0.01 mM hNPSF, HRV3C protease and apyrase, overnight at 4 °C; M1 anti-FLAG column and SEC in 20 mM Tris-Cl pH 8.0, 150 mM NaCl, LMNG/CHS, 100 nM hNPSF; global resolution 3.2 Å. As to conditions: both partners purified.

Test [4] concerns the target NPFFR1 mutant (Q37^NtL, I293^6.58S, and T307^7.31N) (UniProt Q9GZQ6 1-430, Q37^NtL | I293^6.58S | T307^7.31N). The test is described as follows: cell-based or functional assay.

T3 sequence (Q9GZQ6 whole entry): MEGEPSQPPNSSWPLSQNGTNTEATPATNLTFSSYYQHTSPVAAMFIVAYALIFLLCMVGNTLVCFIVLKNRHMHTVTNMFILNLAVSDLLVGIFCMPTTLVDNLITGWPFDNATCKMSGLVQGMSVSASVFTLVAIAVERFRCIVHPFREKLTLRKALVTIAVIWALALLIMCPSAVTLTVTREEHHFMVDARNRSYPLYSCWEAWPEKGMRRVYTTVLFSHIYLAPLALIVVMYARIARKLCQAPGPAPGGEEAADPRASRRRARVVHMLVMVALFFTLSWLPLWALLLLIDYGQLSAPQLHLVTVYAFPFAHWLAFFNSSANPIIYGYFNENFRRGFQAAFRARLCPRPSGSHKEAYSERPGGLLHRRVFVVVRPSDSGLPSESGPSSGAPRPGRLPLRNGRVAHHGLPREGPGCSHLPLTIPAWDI
T1 sequence (Q9Y5X5 103-522): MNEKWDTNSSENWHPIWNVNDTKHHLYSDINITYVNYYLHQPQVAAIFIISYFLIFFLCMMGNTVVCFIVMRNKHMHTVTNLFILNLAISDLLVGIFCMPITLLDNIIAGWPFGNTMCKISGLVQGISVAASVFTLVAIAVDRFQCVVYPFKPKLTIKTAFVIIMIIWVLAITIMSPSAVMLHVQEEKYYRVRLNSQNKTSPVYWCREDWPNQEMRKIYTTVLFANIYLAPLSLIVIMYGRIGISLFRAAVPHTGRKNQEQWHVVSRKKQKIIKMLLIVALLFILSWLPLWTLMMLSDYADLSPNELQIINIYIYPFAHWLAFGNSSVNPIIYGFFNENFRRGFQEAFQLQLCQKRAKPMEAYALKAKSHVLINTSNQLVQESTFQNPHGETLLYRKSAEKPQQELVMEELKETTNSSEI
T2 sequence (Q9GZQ6 whole entry Q37L/I293S/T307N): as the sequence (Q9GZQ6 whole entry) above, with Q37L, I293S, T307N counted along it
T4 sequence (Q9Y5X5 110-522): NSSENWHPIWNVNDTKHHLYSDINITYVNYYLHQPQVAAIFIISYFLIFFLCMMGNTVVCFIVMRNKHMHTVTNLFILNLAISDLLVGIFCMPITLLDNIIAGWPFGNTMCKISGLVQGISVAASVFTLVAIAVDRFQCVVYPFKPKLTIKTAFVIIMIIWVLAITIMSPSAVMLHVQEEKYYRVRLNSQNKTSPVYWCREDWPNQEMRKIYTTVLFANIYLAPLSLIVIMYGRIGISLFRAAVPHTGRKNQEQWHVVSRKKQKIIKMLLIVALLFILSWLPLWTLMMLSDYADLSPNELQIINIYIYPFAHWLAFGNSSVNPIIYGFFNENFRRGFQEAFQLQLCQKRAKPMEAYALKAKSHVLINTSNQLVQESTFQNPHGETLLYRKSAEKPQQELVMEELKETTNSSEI
Chain of NPFFR1 mutant (Q37^NtL, I293^6.58S, and T307^7.31N) (UniProt Q9GZQ6) (Q9GZQ6 other isoform, or with tags, fused parts or gaps mutant): as the sequence (Q9GZQ6 whole entry) above, with Q37L, I293S, T307N counted along it
Chain of NPFFR1 mutant (Q37^NtL, I293^6.58S, and T307^7.31N) (UniProt Q9GZQ6 1-430, Q37^NtL | I293^6.58S | T307^7.31N) (Q9GZQ6 other isoform, or with tags, fused parts or gaps with the stated changes): as the sequence (Q9GZQ6 whole entry) above, with Q37L, I293S, T307N counted along it

On to “MPHSFANLPLRF-NH2 [GnIH] [listing 1 of 2 here]”, for which the EC50 on human NPFFR2 is 158 nM; in test [1], 100 nM; on human NPFFR1 (NPFFR1 wild-type, HEK293T, 0.5 μM forskolin, three independent experiments, read-out: pEC50 ± SEM (converted)), 3.16 nM.

Consider AGEGLNSQFWSLAAPQRF-NH2 [NPAF], for which, at human NPFFR2, the Emax was 80 ± 2% and the EC50 is 6.31 nM. In addition, on human NPFFR1, the EC50 is 200 nM and the Emax was determined as 83 ± 3%.

Turning to “MPHSFANLPLRF-NH2 [GnIH] [listing 2 of 2 here]”, the Emax at human NPFFR2 is 81 ± 2%; in test [1] (HEK-293T) it was 80 ± 2%; at human NPFFR1 (NPFFR1 wild-type, HEK293T, 0.5 μM forskolin, three independent experiments), 80 ± 3%.

On human NPFFR2, `CC(C)C[C@H](NC(=O)[C@H](CC(N)=O)NC(=O)[C@@H]1CCCN1C(=O)[C@@H](N)C(C)C)C(=O)N1CCC[C@H]1C(=O)N[C@@H](CCC(N)=O)C(=O)N[C@@H](CCCNC(=N)N)C(=O)N[C@@H](Cc1ccccc1)C(N)=O` [NPVF] showed an Emax of 78 ± 3% and an EC50 of 631 nM.

In the case of GnIH/RFRP-3 (peptide), in test [2], the fold decrease in forskolin-stimulated cAMP assay (GloSensor, HEK293T): response to GnIH, against wild-type NPFFR1 was 30 fold.

B1: human NPSF (SQAFLFQPQRF-NH2) (peptide)
peptide: SQAFLFQPQRF-NH2
notes: human form of NPSF (SQA-NPFF), an RF-amide peptide of the NPFF series; also called hNPSF; SQA-NPFF; source: synthetic peptide; bought: Cusabio (custom order)
As for B1, the binding result in test [3] is recorded as “binds”. Further, the “forskolin-stimulated cAMP assay (GloSensor, HEK293T): response to hNPSF, against wild-type NPFFR1” value in test [4] is approximately 2 fold.
